Reference: patent US20180028493A1, “INHIBITORS OF INDUCED MMP-1 PRODUCTION” (THE TRUSTEES OF COLUMBIA UNIVERSITY IN THE CITY OF NEW YORK, priority 2015, published 2018)
Where “and” joins values, the source holds several entries; their conditions need not be identical. Equal entries are not always repeated.

Experiments:
MMP-1 [1] = assay: MMP-1 expression in SAECs treated with CSE; format: cell-based
Experimental: FIG. 5. […] Data is presented as mean+standard error.
FIG. 8. […] SAEC treatment with 5% CSE, 10 nM Fluoxitine, 10 uM Fluoxitine, and combinations of 5% CSE and Fluoxitine. […] Data is presented as mean+standard error.
In the first experiment, SAE cells were treated with 5% CSE, 10 nM Fluoxitine, 10 uM Fluoxitine, and combinations of 5% CSE and Fluoxitine (FIG. 8). […] Data is presented as mean+standard error.

MMP-1 [2] = system: MMP-1
Excerpt: FIG. 6. The expression of MMP-1 protein in BAL from smoke rabbits. […] SM-smoke without the duloxetine, SMD-smoke with duloxetine.
(§1) Rabbits were stratified into one of four groups (Unexposed, treated with vehicle, Smoke exposed, treated with vehicle, Unexposed, treated with Duloxetine and smoke exposed treated with Duloxetine. Animals are maintained on room air or smoke exposed for 16 weeks and then sacrificed. Lung lavage is taken, lungs are fixed and sectioned and protein homogenate from lungs frozen.

emphysema = system: emphysema
Experimental: FIG. 7A. […] Duloxetine was administered 3 mg/day given once a day.
FIG. 7B. Morphometric analysis of rabbit study groups. […] NS-non-smoke without the duloxetine, NS-D-non-smoke with duloxetine, SM-smoke without the duloxetine, SM-D-smoke with duloxetine.
as §1

TLR-4 receptor = assay: TLR4 expression in CSE treated SAE cells; format: cell-based; settings: SAEC, 5% CSE, 10 uM
IRAK = assay: Western blot of IRAK phosphorylation in CSE treated SAE cells; format: cell-based
PRAS40, BAD and GSK-3b = assay: Protein array analysis of cells treated with CSE; format: cell-based; settings: CSE with Fluoxetine pretreatment vs CSE
Experimental: FIG. 10. Protein Array Analysis of Cells Treated with CSE compared to Cells Treated with CSE combined with Fluoxetine. […] The lines representing these three transcription factors, along with ERK 1/2, are labeled. Additionally, the lines compressed at the bottom of the figure represent the following transcription factors that were also tested: PC, NC, Stat1, Stat2, Akt (Thr308), Akt (Ser473), AMPKa, S6 Ribosomal Protein, mTOR, HSP27, p70 S6 Kinase, p53, p38, SAPK/JNK, PARP and Caspase-3.

[3] = Fluoxetine quantification in lung by chromatography after oral gavage or inhalation; format: in vivo; settings: mice; for Concentration in lung sample: peak at retention time 17.08, replicates and average
Excerpt: FIG. 13A. […] Mice were sacrificed, lungs lyophilized and protein homogenate prepared for chromatographic analysis.
FIG. 14A. […] Mice were sacrificed, lungs lyophilized and protein homogenate prepared for chromatographic analysis.
Mice were sacrificed, lungs lyophilized and protein homogenate prepared for chromatographic analysis.

Concentration in lung sample ([3]; inhalation 10 mg/kg) | Concentration in lung sample ([3]; inhalation 10 mg/kg, mean) [µM] | Levels of Fluoxetine within the lung, inhalation vs oral ([3]; 10 mg/kg) | Concentration in lung sample ([3]; oral gavage 10 mg/kg, 10 mg/kg, mean) [µM] | Compound | MMP-1 expression (MMP-1 [1]; SAEC, 5% CSE, 10 uM Duloxetine, p<0.05) | MMP-1 expression (MMP-1 [1]; cell culture system, 10 nM) | MMP-1 expression by ELISA of lung homogenate (MMP-1 [2]; rabbit cigarette smoke model, 20 weeks of smoke, compound in the last four weeks) | Expression of MMP-1 protein in BAL (MMP-1 [2]; smoke exposed rabbits) | Mean linear intercept (morphometric analysis) (emphysema; SM vs NS, NS-D, SM-D groups, p=0.0495) | Development of emphysema (H&E of lungs) (emphysema; smoke exposed rabbits, 3 mg/day once a day) | MMP-1 induction by CSE (MMP-1 [1]; SAEC, 5% CSE, 10 nM and 10 uM Fluoxetine, p<0.05) | TLR-4 receptor expression (TLR-4 receptor) | Phosphorylation of IRAK (Western blot) (IRAK) | BAD (protein array) (PRAS40, BAD and GSK-3b) | GSK-3b (protein array) (PRAS40, BAD and GSK-3b) | PRAS40 (protein array) (PRAS40, BAD and GSK-3b) | Detection of Fluoxetine in the lung ([3]; 10 mg/kg oral gavage and 10 mg/kg inhaled) | Concentration in lung sample ([3]; oral gavage 10 mg/kg, 10 mg/kg)
 |  |  |  | CNCC[C@H](Oc1cccc2ccccc12)c1cccs1 [Duloxetine, (+)-(S)—N-Methyl-3-(naphthalen-1-yloxy)-3-(thiophen-2-yl) propan-1-amine] | decreased MMP-1 expression | block the MMP-1 expression | block the MMP-1 expression | down regulated the expression of MMP-1 in BAL | SM group had statistically significant increased mean linear intercept | development of emphysema was blocked |  |  |  |  |  |  |  | 
25.81 µM and 26.2 µM and 26.45 µM | 26.16 | Inhalation resulted in higher levels | 3.788 | CNCCC(Oc1ccc(C(F)(F)F)cc1)c1ccccc1 (stereo not drawn) [Fluoxetine] |  |  |  |  |  |  | MMP-1 induction was attenuated | down regulation of TLR-4 receptor expression | suppressed | return to baseline | return to baseline | return to baseline | detection of Fluoxetine in the lung of mice | 3.712 µM and 3.673 µM and 3.98 µM
